Laboratory results from publication PMC11864979, “First-in-class ultralong-target-residence-time p38α inhibitors as a mitosis-targeted therapy for colorectal cancer” (Nature Cancer, 2025).
Several values for one entry are separate records, joined by “and”; a condition that tells them apart may be missing. Identical values can stand only once.

Experiments:
[1] = system: PDO13; assay: cell viability in patient-derived CRC organoids PDO13; format: cell-based, human
Protocol: (§1) For in vitro treatment studies, organoids were mechanically dissociated and digested using TrypLE supplemented with 100 µg ml^−1 DNaseI and 10.5 µM Y-27632 dihydrochloride (Invitrogen) at 37 °C. A total of 1,000–2,000 single cells were plated per well in white 96-well plates (Greiner) in culture medium containing 10% GFR Matrigel or Cultrex BME. The treatment with doxycycline (5 µg ml^−1), pharmacological inhibitors or corresponding volumes of DMSO was started 24 h after plating. Doxycycline was obtained from Sigma-Aldrich. […] Cell viability was measured by means of CellTiter-Glo 3D or CellTiter-Glo 2.0 reagent (Promega) according to the manufacturers’ instructions and the Infinite M Plex reader (Tecan, i-control version 3.9.1 software). Results were normalized to vehicle (DMSO) or to shNC. For cell-doubling assays, the cell number was quantified at the corresponding time points using Guava EasyCyte flow cytometer (Luminex, CytoSoft v5.2 software).

[2] = system: KAP^2D cells; assay: annexin V apoptosis analysis in KAP^2D cells; format: cell-based, mouse; details: Fig. 5a
Protocol: Apoptosis was analyzed with the FITC annexin V apoptosis detection kit (Biolegend). Both measurements were performed with FACS Canto II (BD) and physical parameters were used to exclude cell debris and cell doublets.

[3] = system: KAP^2D cells; assay: quantification of viable KAP^2D cells over time (cell-doubling assay); format: cell-based, mouse; details: Fig. 4i
Protocol: The treatment with doxycycline (5 µg ml^−1), pharmacological inhibitors or corresponding volumes of DMSO was started 24 h after plating. […] Cell viability was measured by means of CellTiter-Glo 3D or CellTiter-Glo 2.0 reagent (Promega) according to the manufacturers’ instructions and the Infinite M Plex reader (Tecan, i-control version 3.9.1 software). Results were normalized to vehicle (DMSO) or to shNC. For cell-doubling assays, the cell number was quantified at the corresponding time points using Guava EasyCyte flow cytometer (Luminex, CytoSoft v5.2 software).

[4] = system: HCT-15; assay: cell viability in human CRC cell line HCT-15; format: cell-based; details: for HCT-15 Cell viability (%): 4 d
Protocol: To generate KAP^2D cells, KAP organoids were isolated from Matrigel, fragmented by mechanical dissociation and plated without any extracellular matrix on common cell culture dishes. Phoenix-Eco packaging cells (CRL-3214), HCT-15 (CCL-225), HCT 116 (CCL-247), COLO 205 (CCL-222), LS 174T (CL-188), RKO (CRL-2577) and HT-29 (HTB-38) were obtained from the American Type Culture Collection. The cells were cultured at 37 °C and 7% CO2 with RPMI (KAP^2D cells) or DMEM (other cell lines), supplemented with 10% FBS and penicillin–streptomycin. KAP^2D cells were authenticated using PCR (Kras locus and Trp53 locus). Phoenix-Eco packaging cells and HCT-15, HCT 116, COLO 205, LS 174T, RKO and HT-29 cells were authenticated by the provider using short tandem repeat profiling. No commonly misidentified cell lines were used. Mycoplasma contamination was excluded by a PCR-based analysis.
as §1

For `O=C1c2ccc(Nc3ccc(F)cc3F)cc2CCc2ccc(OC[C@H](O)CO)cc21` [SKL, skepinone-L, reference compound], the viability at 0.5 µM ([1]; Homo sapiens, 96 h, read-out: Cell viability (%), PDO13, 0.5 µM, 4 d) was 90.8%, the viability at 1 µM ([1]; Homo sapiens, 96 h, read-out: Cell viability (%), PDO13, 1 µM, 4 days) was 85.6% and the “Cell viability (%)” value ([1]; PDO13, 0.5 µM, 4 d, 0.5 µM) was 102.60% and 92.37%. The “Cell viability (%)” value ([1]; PDO13, 1 µM, 4 days, 1 µM) was 87.89% and 85.59%, the “Annexin V+ cells” value ([2]; 1 d of treatment) was 5.21% and 5.26% and 4.63% and 7.96% and 7.76% and 8.93% and the “Annexin V+ cells” value ([2]; 2 d of treatment) was 9.26% and 10.60% and 6.13% and 6.98% and 6.69% and 8.97%. For the same compound, the “Annexin V+ cells” value ([2]; 3 d of treatment) was 12.30% and 9.65% and 9.21% and 7.99% and 8.10%, the “Annexin V+ cells” value ([2]; 4 d of treatment) was 14.90% and 13.30% and 12.30% and 11.90% and 13.00% and 16.60% and the Number of cells ([3]; 0 h of treatment) was 41307.05 and 44263.95 and 43595.63 and 48502.24 and 40389.64. For the same compound, the Number of cells ([3]; 12 h of treatment) was 65088.74 and 77948.45 and 80933.57 and 91775.55 and 95176.94 and 93698.43, the Number of cells ([3]; 24 h of treatment) was 83699.30 and 94240.25 and 95144.88 and 126855.10 and 130387.80 and 122006.30 and the Number of cells ([3]; 36 h of treatment) was 151900.95 and 118999.57 and 148091.83 and 233974.50 and 200549.50 and 179469.60. The Number of cells ([3]; 48 h of treatment) was 325693.88 and 295126.41 and 320338.47 and 303856.40 and 287208.10 and 301764.60, the Number of cells ([3]; 60 h of treatment) was 579787.04 and 516216.51 and 567999.66 and 537469.80 and 457898.40 and 474698.40 and the “HCT-15 Cell viability (%)” value ([4]; 0.0137 µM) was 94.63% and 95.15% and 88.92% and 87.12% and 85.20%. For the same compound, the “HCT-15 Cell viability (%)” value ([4]; 0.0412 µM) was 84.33% and 79.97% and 95.82% and 93.07% and 94.19%, the “HCT-15 Cell viability (%)” value ([4]; 0.1235 µM) was 87.23% and 83.60% and 94.86% and 91.54% and 91.68% and the “HCT-15 Cell viability (%)” value ([4]; 0.3704 µM) was 89.64% and 87.65% and 88.79% and 84.50% and 86.12%. The “HCT-15 Cell viability (%)” value ([4]; 1.1111 µM) was 86.80% and 87.17% and 87.53% and 83.96% and 84.00%, the “HCT-15 Cell viability (%)” value ([4]; 3.3333 µM) was 78.50% and 80.56% and 79.62% and 74.15% and 75.97% and the “HCT-15 Cell viability (%)” value ([4]; 10.0000 µM) was 48.74% and 48.84% and 48.80% and 46.08% and 47.66%. For the same compound, the viability at 0.0137 µM ([4]; Homo sapiens, HCT-15, 96 h, read-out: HCT-15 Cell viability (%), 0.0137 µM, 4 d) was 96.7%, the viability at 0.0412 µM ([4]; Homo sapiens, HCT-15, 96 h, read-out: HCT-15 Cell viability (%), 0.0412 µM, 4 d) was 83.9% and the viability at 0.1235 µM ([4]; Homo sapiens, HCT-15, 96 h, read-out: HCT-15 Cell viability (%), 0.1235 µM, 4 d) was 87.5%. It also gave a viability at 0.3704 µM ([4]; Homo sapiens, HCT-15, 96 h, read-out: HCT-15 Cell viability (%), 0.3704 µM, 4 d) of 93.1%, a viability at 1.1111 µM ([4]; Homo sapiens, HCT-15, 96 h, read-out: HCT-15 Cell viability (%), 1.1111 µM, 4 d) of 93.5% and a viability at 3.3333 µM ([4]; Homo sapiens, HCT-15, 96 h, read-out: HCT-15 Cell viability (%), 3.3333 µM, 4 d) of 76.4%. For the same compound, the viability at 10 µM ([4]; Homo sapiens, HCT-15, 96 h, read-out: HCT-15 Cell viability (%), 10.0000 µM, 4 d) was 49.5%.
